Here are results for 4 compounds from ChEMBL document CHEMBL4004802, “α-Glucosidase Inhibitors from Malbranchea flavorosea” (J Nat Prod, 2017).

Calls of active or inactive are those of the source. The calls are words filed in the database; no cut-off is given here.

The nature of assay [1]: Inhibition of Saccharomyces cerevisiae alpha-glucosidase using p-nitrophenyl-alpha-D-glucopyranoside as substrate after 30 mins.
The test system of assay [2] is Mus musculus. Put plainly: Antihyperglycemic activity in ICR mouse assessed as decrease in postprandial blood glucose levels at 5 mg/kg administered 30 mins followed by oral sucrose challenge measured after 30 to 120 mins by OSTT. It is filed as functional, organism-based.
Assay [3] relates to Mus musculus. Nature of the assay: Antihyperglycemic activity in nicotinamide/streptozotocin-induced ICR mouse hyperglycemic model assessed as decrease in postprandial blood glucose levels at 5 mg/kg administered 30 mins followed by oral sucrose challenge measured after 30 to 120 mins by OSTT. It is filed as functional, organism-based.
For assay [4], the system named is Mus musculus. Put plainly: Antihyperglycemic activity in ICR mouse assessed as decrease in postprandial blood glucose levels at 3.2 to 31.6 mg/kg, po administered 30 mins followed by oral sucrose challenge measured after 30 to 120 mins by OSTT. The assay is classed as functional, organism-based.
The test system of assay [5] is Mus musculus. Nature of the assay: Antihyperglycemic activity in nicotinamide/streptozotocin-induced ICR mouse hyperglycemic model assessed as decrease in postprandial blood glucose levels at 3.2 to 31.6 mg/kg, po administered 30 mins followed by oral sucrose challenge measured after 30 to 120 mins by OSTT. The assay is classed as functional, organism-based.

On to `C[C@H]1O[C@H](O[C@H]2[C@H](O)[C@@H](O)[C@@H](O[C@H]3[C@H](O)[C@@H](O)C(O)O[C@@H]3CO)O[C@@H]2CO)[C@H](O)[C@@H](O)[C@@H]1N[C@H]1C=C(CO)[C@@H](O)[C@H](O)[C@H]1O` (stereo partly drawn) [ACARBOSE], for which the midpoint of inhibition in assay [1], the IC50, lay at 500 µM. Also, the result in assay [2] and in assay [3] was Active.

For `O=C1C=Cc2cccc(O)c2CO1`, the midpoint of inhibition in assay [1], the IC50, lay at 1070 µM.

With `C[C@H](O)[C@H](O)C[C@H]1OCc2c(O)cccc21`, the IC50 in assay [1] stood at 2250 µM.

Compound `C=C1OC(=O)[C@]2([C@H](C)C=CC(=O)[C@@H]2O)[C@H]1O` [MASSARIGENIN C] registered an IC50 in assay [1] of 1250 µM. The result in assay [4] and in assay [5] was Active.
